What was measured:
[1] = target: T1, peroxisome proliferator-activator receptor γ (PPAR γ) (Homo sapiens, UniProt P37231); conditions: literature studies; cited from earlier work
T1 sequence (P37231 1-505): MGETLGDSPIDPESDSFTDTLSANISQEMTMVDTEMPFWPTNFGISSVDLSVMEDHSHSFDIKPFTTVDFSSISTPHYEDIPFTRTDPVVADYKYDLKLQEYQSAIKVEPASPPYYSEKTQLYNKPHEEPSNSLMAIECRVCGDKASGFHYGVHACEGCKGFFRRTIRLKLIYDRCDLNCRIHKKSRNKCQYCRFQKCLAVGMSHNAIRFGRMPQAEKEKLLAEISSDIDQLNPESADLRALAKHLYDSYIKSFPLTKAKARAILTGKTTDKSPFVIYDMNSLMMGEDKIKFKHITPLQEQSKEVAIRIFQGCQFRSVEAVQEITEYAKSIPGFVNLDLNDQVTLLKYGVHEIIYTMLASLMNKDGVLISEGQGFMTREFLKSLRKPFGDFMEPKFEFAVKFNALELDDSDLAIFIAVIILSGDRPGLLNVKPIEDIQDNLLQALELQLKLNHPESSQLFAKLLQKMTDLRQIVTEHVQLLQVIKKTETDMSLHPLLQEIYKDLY

CD34+ cells = test: Cytokine secretion by CD34+ cells (Bio-Plex cytokine bead array); type: cell-based, human; conditions: LPA 100 μM; hypoxia, serum free, 24 h
Experimental: In an embodiment, cell culture supernatants were evaluated for the presence and concentrations of cytokines using a Bio-Plex Pro Human Cytokine 17-Plex Panel Assay (preferably, Bio-Rad, Hercules, Calif., USA), according to manufacturer's instructions, in a Bio-Plex 200 System (Bio-Rad, www.bio-rad.com). The human Group I 17-Plex Panel consisted of the following analytes: interleukin-1β (IL-1β), IL-2, IL-4, IL-5, IL-6, IL-7, IL-8; IL-10, IL-12(p70), IL-13, IL-17, granulocyte colony-stimulating factor (G-CSF), granulocyte/macrophage colony-stimulating factor (GM-CSF), interferon-γ (IFN-γ), monocyte chemotactic protein (monocyte chemotactic activating factor [MCP-1 (MCAF)], macrophage inflammatory protein-β (MIP-1 β) and tumor necrosis factor-α (TNF-α). Supernatant media samples were collected, centrifuged to remove precipitates and frozen. A standard range of 0.2 to 3,200 pg/mL was used. Samples and controls were run in triplicate, standards and blanks in duplicate.
To determine the effect of LPA in the release of signaling cytokines and growth factors by CD34+ cells, was used a cytokine bead array. The cells were incubated in serum free medium X-Vivo for 24 h under normoxia or hypoxia conditions, either in the presence or absence of LPA (100 μM). Untreated CD34+ cells in normoxia express high levels (>100 pg/mL) of IL-8 and MIP-1b, medium levels (between 100 and 1 pg/mL) of IL-6, TNF-α and GM-CSF, and low levels (<1 pg/mL) of IL-1β, IL-4 and IL-17 (FIG. 5C).

**Q.** With lysophosphatidic acid [LPA] as the substance, how does the “affinity for PPARγ” value [1] read?
**A.** The value was “high affinity”.

**Q.** What about the “secretion of GM-CSF” value (CD34+ cells) of the same substance?
**A.** The value was about 1 pg/mL.

**Q.** And the “secretion of IL-1” value (CD34+ cells)?
**A.** The value was about 2 pg/mL.

**Q.** And the “secretion of IL-4” value (CD34+ cells)?
**A.** Its value is about 2.7 pg/mL.

**Q.** And the “secretion of IL-6” value (CD34+ cells)?
**A.** Its value is about 2 pg/mL.

**Q.** What about the “secretion of IL-8” value (CD34+ cells) of the same substance?
**A.** The value was ~17,000 pg/mL.

**Q.** And the “secretion of TNF-α” value (CD34+ cells)?
**A.** The value was about 15 pg/mL.

Reference: patent US9868935B2, “Composition and method of stem cells for preservation of cardiac tissue” (CRIOESTAMINAL, SAÚDE E TECNOLOGIA, SA., priority 2012, dated 2018)
